The numbers were not newly measured in patent EP1432446B1, “METHODS FOR THE IDENTIFICATION OF POLYPEPTIDE ANTIGENS ASSOCIATED WITH DISORDERS INVOLVING ABERRANT CELL PROLIFERATION” (Genentech, Inc., priority 2001, dated 2003), which cites them from elsewhere.

Take `COc1cc2cc(c1Cl)N(C)C(=O)C[C@H](OC(=O)[C@H](C)N(C)C(C)=O)[C@]1(C)O[C@H]1[C@H](C)[C@@H]1C[C@@](O)(NC(=O)O1)[C@H](OC)/C=C/C=C(\C)C2` [maytansine, Maytansine]: the “adverse effects in clinical trials” value (clinical trials discontinued) is “serious adverse effects on the central nervous system and gastrointestinal system”. The associated toxicity entry (in vivo) is listed as “peripheral neuropathy”.
